We go through twelve molecules from patent US20140171431A1, “AZOLE HETEROCYCLIC COMPOUND, PREPARATION METHOD, PHARMACEUTICAL COMPOSITION AND USE” (priority 2011, published 2014).

Read-outs that look alike come from different tables or passages of the source.

In one assay the target is T1, Lp-PLA2 in rabbit serum (Oryctolagus cuniculus, UniProt G1SE06).
T1 construct: from tissue; host or cells: rabbit serum
T1 sequence (G1SE06 22-423): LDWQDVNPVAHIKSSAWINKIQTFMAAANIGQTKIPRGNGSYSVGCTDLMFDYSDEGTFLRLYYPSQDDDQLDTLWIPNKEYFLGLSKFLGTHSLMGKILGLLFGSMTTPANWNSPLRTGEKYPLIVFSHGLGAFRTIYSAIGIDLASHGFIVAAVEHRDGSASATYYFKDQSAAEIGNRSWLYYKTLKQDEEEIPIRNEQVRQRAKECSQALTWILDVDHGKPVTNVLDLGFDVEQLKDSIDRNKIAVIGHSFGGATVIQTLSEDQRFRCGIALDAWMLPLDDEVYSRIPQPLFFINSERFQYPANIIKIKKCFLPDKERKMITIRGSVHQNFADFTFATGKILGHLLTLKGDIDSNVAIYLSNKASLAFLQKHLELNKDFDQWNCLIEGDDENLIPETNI
The assay can be described thus: In vitro inhibitory activity towards the enzyme Lp-PLA2 in rabbit serum, [3H]PAF substrate. In kind it is biochemical. Particulars: for inhibition at 0.1 µM: 100 nM.

The target of another assay is T2, Lp-PLA2 in human serum (Homo sapiens, UniProt Q13093).
T2 construct: from tissue
T2 sequence (Q13093 22-441): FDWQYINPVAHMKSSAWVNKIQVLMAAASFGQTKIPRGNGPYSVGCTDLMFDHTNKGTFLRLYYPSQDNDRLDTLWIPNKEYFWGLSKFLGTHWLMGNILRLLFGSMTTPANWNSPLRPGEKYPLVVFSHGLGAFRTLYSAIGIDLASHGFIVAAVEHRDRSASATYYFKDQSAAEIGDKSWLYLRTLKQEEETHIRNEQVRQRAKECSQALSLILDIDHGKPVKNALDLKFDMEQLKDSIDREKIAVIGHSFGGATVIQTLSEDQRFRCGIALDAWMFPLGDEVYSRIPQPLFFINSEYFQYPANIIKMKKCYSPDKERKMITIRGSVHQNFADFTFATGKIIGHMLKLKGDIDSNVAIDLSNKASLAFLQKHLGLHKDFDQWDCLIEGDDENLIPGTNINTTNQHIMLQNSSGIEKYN
Briefly: In vitro inhibitory activity towards the enzyme Lp-PLA2 in human serum, [3H]PAF substrate. The assay is classed as biochemical. Particulars: for inhibition at 0.01 µM: 10 nM; for inhibition at 0.1 µM: 100 nM. How it is done: The activities of compounds were measured using [^3H] labeled platelet activating factor ([^3H]PAF, Perkinelmer, Lot NET910) as the substrate. The reaction was carried out in a system containing 50 mmol/l HEPES and 150 mmol/l NaCl (pH 7.4) in a total volume of 200 μl. First, 10 μL human plasma and 10 μl DMSO solution of the test compound were added to the system and preincubated for 10 min at 37° C. Then 20 nM [^3H]PAF was added as listed in table 1 to start the reaction and incubated for a further 10 min at 37° C. After that, 600 μl of CHCl3/MeOH (2:1) was added and the resulting mixture was mixed with vortex. After settled for a while, the mixture was centrifugated at 12000×g for 15 min. The supernatant was transferred to a new tube and 200 μl of CHCl3 was added and mixed by vortexing. The mixture was settled or centrifugated for 2 min. A 100 μl portion of the supernatant was then collected for radioactivity intensity measurement.

The mark [1] stands for this setting: rabbit serum, read-out: inhibition, %.
[2] abbreviates: human serum, read-out: inhibition, %.
Setting [3] is: read-out: inhibitory rate towards the rabbit serum derived Lp-PLA2 enzyme.
Setting [4] is: read-out: inhibitory rate towards the human serum derived Lp-PLA2 enzyme.

For `O=c1nc(SCc2ccc(F)cc2)n(Cc2nnc(C3CC3)n2Cc2ccc(-c3ccc(C(F)(F)F)cc3)cc2)c2c1CCC2` [Example 68, 1-((5-cyclopropyl-4-((4′-(trifluoromethyl)biphenyl-4-yl)methyl)-4H-1,2,4-triazol-3-yl)methyl)-2-(4-fluorobenzylthio)-6,7-dihydro-1H-cyclopenta[d]pyrimidin-4(5 H)-one], the inhibition at 0.1 µM on Lp-PLA2 in rabbit serum (setting [1]) worked out at 34%; at Lp-PLA2 in human serum (human serum), 97%. This molecule came in with an inhibition at 1 µM against Lp-PLA2 in rabbit serum (1 μM, rabbit serum) of 87%. Moreover, the inhibition at 0.01 µM on Lp-PLA2 in human serum (setting [2]) is 93%.

For the molecule `O=c1nc(SCc2ccc(F)cc2)n(Cc2nnc(CS(=O)(=O)Cc3ccccc3)n2Cc2ccc(-c3ccc(C(F)(F)F)cc3)cc2)c2c1CCC2` [Example 69, 1-((5-(benzylsulfonylmethyl)-4-((4′-(trifluoromethyl)biphenyl-4-yl)methyl)-4H-1,2,4-triazol-3-yl)methyl)-2-(4-fluorobenzylthio)-6,7-dihydro-1H-cyclopenta[d]pyrimidin-4(5H)-one], the results for the inhibition at 0.1 µM at Lp-PLA2 in rabbit serum (setting [1]) and against Lp-PLA2 in human serum (human serum) were 89% and 97%, respectively. The inhibition at 0.01 µM at Lp-PLA2 in human serum (setting [2]) turned out to be 87%.

For `O=c1nc(SCc2ccc(F)cc2)n(Cc2nnc(CO)n2Cc2ccc(-c3ccc(C(F)(F)F)cc3)cc2)c2c1CCC2` [Example 72, 2-(4-fluorobenzylthio)-1-((5-(hydroxymethyl)-4-((4′-(trifluoromethyl)biphenyl-4-yl)methyl)-4H-1,2,4-triazol-3-yl)methyl)-6,7-dihydro-1H-cyclopenta[d]pyrimidin-4(5H)-one], the inhibition at 0.1 µM at Lp-PLA2 in rabbit serum (setting [1]) came out at 73%; on Lp-PLA2 in human serum (human serum) it was 91%. Further, the inhibition at 0.01 µM on Lp-PLA2 in human serum (setting [2]) came out at 65%.

With `CN(C)Cc1nnc(Cn2c(SCc3ccc(F)cc3)nc(=O)c3c2CCC3)n1Cc1ccc(-c2ccc(C(F)(F)F)cc2)cc1` [Example 75, 1-((5-((dimethylamino)methyl)-4-((4′-(trifluoromethyl)biphenyl-4-yl)methyl)-4H-1,2,4-triazol-3-yl)methyl)-2-(4-fluorobenzylthio)-6,7-dihydro-1H-cyclopenta[d]pyrimidin-4(5H)-one], the figures for the inhibition at 0.1 µM on Lp-PLA2 in rabbit serum (setting [1]) and at Lp-PLA2 in human serum (human serum) were 88.3% and 97%, respectively. Besides, at Lp-PLA2 in human serum (setting [2]), the inhibition at 0.01 µM turned out to be 85%.

As for `C[N+](C)(Cc1ccc(F)cc1)Cc1nnc(Cn2c(SCc3ccc(F)cc3)nc(=O)c3c2CCC3)n1Cc1ccc(-c2ccc(C(F)(F)F)cc2)cc1` [Example 76, N-(4-fluorobenzyl)-1-(5-((2-(4-fluorobenzylthio)-4-oxo-4,5,6,7-tetrahydro-1H-cyclopenta[d]pyrimidin-1-yl)methyl)-4-((4′-(trifluoromethyl)biphenyl-4-yl)methyl)-4 H-1,2,4-triazol-3-yl)-N,N-dimethylmethanaminium bromide], the inhibition at 0.1 µM is 97% on Lp-PLA2 in rabbit serum (setting [1]), > 90% on Lp-PLA2 in rabbit serum (setting [3]) and 100% at Lp-PLA2 in human serum (human serum). In addition, the inhibition at 0.01 µM on Lp-PLA2 in human serum (setting [2]) is 100%; at Lp-PLA2 in human serum (setting [4]) it was > 80%.

With `C[N+](C)(C)Cc1nnc(Cn2c(SCc3ccc(F)cc3)nc(=O)c3c2CCC3)n1Cc1ccc(-c2ccc(C(F)(F)F)cc2)cc1` [Example 77, 1-(5-((2-(4-fluorobenzylthio)-4-oxo-4,5,6,7-tetrahydro-1H-cyclopenta[d]pyrimidin-1-yl)methyl)-4-((4′-(trifluoromethyl)biphenyl-4-yl)methyl)-4H-1,2,4-triazol-3-yl)-N,N,N-trimethylmethanaminium iodide], the inhibition at 0.1 µM at Lp-PLA2 in rabbit serum (setting [1]) was 93%; at Lp-PLA2 in rabbit serum (setting [3]) it was > 90%; against Lp-PLA2 in human serum (human serum), 98%. Moreover, the inhibition at 0.01 µM was 97% at Lp-PLA2 in human serum (setting [2]) and > 80% on Lp-PLA2 in human serum (setting [4]).

`CCN(CC)Cc1nnc(Cn2c(SCc3ccc(F)cc3)nc(=O)c3c2CCC3)n1Cc1ccc(-c2ccc(C(F)(F)F)cc2)cc1` [Example 79, 1-((5-((diethylamino)methyl)-4-((4′-(trifluoromethyl)biphenyl-4-yl)methyl)-4H-1,2,4-triazol-3-yl)methyl)-2-(4-fluorobenzylthio)-6,7-dihydro-1H-cyclopenta[d]pyrimidin-4(5H)-one]: the inhibition at 0.1 µM at Lp-PLA2 in rabbit serum (setting [1]) is 85.3%; on Lp-PLA2 in human serum (human serum), 93%. The inhibition at 0.01 µM on Lp-PLA2 in human serum (setting [2]) came to 68%.

Consider `CN(Cc1ccc(F)cc1)Cc1nnc(Cn2c(SCc3ccc(F)cc3)nc(=O)c3c2CCC3)n1Cc1ccc(-c2ccc(C(F)(F)F)cc2)cc1` [Example 81, 1-((5-(((4-fluorobenzyl)(methyl)amino)methyl)-4-((4′-(trifluoromethyl)biphenyl-4-yl)methyl)-4H-1,2,4-triazol-3-yl)methyl)-2-(4-fluorobenzylthio)-6,7-dihydro-1H-cyclopenta[d]pyrimidin-4(5H)-one], for which the figures for the inhibition at 0.1 µM on Lp-PLA2 in rabbit serum (setting [1]), at Lp-PLA2 in rabbit serum (setting [3]) and against Lp-PLA2 in human serum (human serum) were 90%, > 90% and 98%, respectively. Moreover, the values for the inhibition at 0.01 µM on Lp-PLA2 in human serum (setting [2]) and at Lp-PLA2 in human serum (setting [4]) were 93% and > 80%, respectively.

For `CC(C)N(C)Cc1nnc(Cn2c(SCc3ccc(F)cc3)nc(=O)c3c2CCC3)n1Cc1ccc(-c2ccc(C(F)(F)F)cc2)cc1` [Example 82, 2-(4-fluorobenzylthio)-1-((5-((isopropyl(methyl)amino)methyl)-4-((4′-(trifluoromethyl)biphenyl-4-yl)methyl)-4H-1,2,4-triazol-3-yl)methyl)-6,7-dihydro-1H-cyclopenta[d]pyrimidin-4(5H)-one], the figures for the inhibition at 0.1 µM at Lp-PLA2 in rabbit serum (setting [1]) and against Lp-PLA2 in human serum (human serum) were 85% and 98%, respectively. On Lp-PLA2 in human serum (setting [2]), the inhibition at 0.01 µM is 77%.

Regarding `C[C@@H]1CN(Cc2nnc(Cn3c(SCc4ccc(F)cc4)nc(=O)c4c3CCC4)n2Cc2ccc(-c3ccc(C(F)(F)F)cc3)cc2)C[C@H](C)O1` [Example 84, 1-((5-(((2S,6R)-2,6-dimethylmorpholino)methyl)-4-((4′-(trifluoromethyl)biphenyl-4-yl)methyl)-4H-1,2,4-triazol-3-yl)methyl)-2-(4-fluorobenzylthio)-6,7-dihydro-1H-cyclopenta[d]pyrimidin-4(5H)-one], the inhibition at 0.1 µM worked out at 76% at Lp-PLA2 in rabbit serum (setting [1]) and 91% at Lp-PLA2 in human serum (human serum). Besides, the inhibition at 0.01 µM at Lp-PLA2 in human serum (setting [2]) worked out at 69%.

For the molecule `COC(=O)C(C)(C)NCc1nnc(Cn2c(SCc3ccc(F)cc3)nc(=O)c3c2CCC3)n1Cc1ccc(-c2ccc(C(F)(F)F)cc2)cc1` [Example 85, methyl-2-((5-((2-(4-fluorobenzylthio)-4-oxo-4,5,6,7-tetrahydro-1H-cyclopenta[d]pyrimidin-1-yl)methyl)-4-((4′-(trifluoromethyl)biphenyl-4-yl)methyl)-4H-1,2,4-triazol-3-yl)methylamino)-2-methylpropanoate], the inhibition at 0.1 µM is 77% at Lp-PLA2 in rabbit serum (setting [1]) and 91% against Lp-PLA2 in human serum (human serum). For the same molecule, the inhibition at 0.01 µM at Lp-PLA2 in human serum (setting [2]) worked out at 59%.

Turning to `CCN1CCN(Cc2nnc(Cn3c(SCc4ccc(F)cc4)nc(=O)c4c3CCC4)n2Cc2ccc(-c3ccc(C(F)(F)F)cc3)cc2)CC1` [Example 86, 1-((5-((4-ethylpiperazin-1-yl)methyl)-4-((4′-(trifluoromethyl)biphenyl-4-yl)methyl)-4H-1,2,4-triazol-3-yl)methyl)-2-(4-fluorobenzylthio)-6,7-dihydro-1H-cyclopenta[d]pyrimidin-4(5H)-one], the inhibition at 0.1 µM at Lp-PLA2 in rabbit serum (setting [1]) was 90%; on Lp-PLA2 in rabbit serum (setting [3]), > 90%; against Lp-PLA2 in human serum (human serum), 96%. Besides, the inhibition at 0.01 µM at Lp-PLA2 in human serum (setting [2]) was 82%; on Lp-PLA2 in human serum (setting [4]), > 80%.
